The assay addresses T1, PARP1 (Homo sapiens, UniProt P09874).
T1 construct: HeLa cells (wide-type with PARP1 gene) were purchased from ATCC; host or cells: HeLa (wild type)
Put plainly: In-Cell Western measurement of PARylation in PARP1 WT and knockout cells. It counts as cell-based. The following applies: HeLa cells (wide-type with PARP1 gene); hydrogen peroxide-induced PARylation; compounds 30 min, then 10 mM hydrogen peroxide 15 min; read-out: HeLa_WT_IC50. From the text: The purpose of this cell-based assay is to measure the potency and selectivity of synthesized PARP inhibitors in suppressing hydrogen peroxide-induced PARylation in cells with and without PARP1 expression. Several cell lines were used in this assay. The human PARP1 knockout HEK-293T cell line (#ab266598) was purchased from Abcam, and its corresponding wide-type control is the human wild-type HEK-293T cell line (#ab255449). The HAP1 isogenic cell lines with and without the PARP1 gene (#HZGHC003943c006) were purchased from Horizon Discovery. HeLa cells (wide-type with PARP1 gene) were purchased from ATCC. Cells were cultured using complete medium containing 10% fetal bovine serum. One day before the assay, cells were seeded in 96-well plates at the density of 20,000 cells per well in 100 uL complete medium. Compounds were dissolved using DMSO and diluted to the working concentrations using complete medium. Cells were pre-treated with compounds for 30 min and then stimulated with 10 mM hydrogen peroxide for 15 min. After stimulation, cells were immediately fixed using ice-cold methanol for 20 min. After fixation, cells were washed using 1×PBST buffer for 3 times, 5 min each time, to eliminate residual methanol. Cells were blocked for 2 h at room temperature in blocking buffer (LI-COR Biosciences, #927-70001). Primary antibody was diluted in diluent buffer (LI-COR Biosciences, #927-75001, 1:200) at 50 uL per well. Cells were incubated with the primary antibody at 4° C. for 18 h. The wells were then washed using 1×PBST for 3 times, 5 min each time. IRDye® 680RD Goat anti-Mouse IgG (H+L) secondary antibody was diluted at 1/2000 using the diluent buffer and added at 100 μL per well. Secondary antibody incubation was for 1 h at room temperature. Cells were then washed using 1×PBST for 3 times, 5 min each time. The signal was detected and analyzed using LI-COR Odyssey DLx Imaging system. Data were collected and further processed using GraphPad Prism for IC50 estimation.

T1 sequence (P09874 whole entry): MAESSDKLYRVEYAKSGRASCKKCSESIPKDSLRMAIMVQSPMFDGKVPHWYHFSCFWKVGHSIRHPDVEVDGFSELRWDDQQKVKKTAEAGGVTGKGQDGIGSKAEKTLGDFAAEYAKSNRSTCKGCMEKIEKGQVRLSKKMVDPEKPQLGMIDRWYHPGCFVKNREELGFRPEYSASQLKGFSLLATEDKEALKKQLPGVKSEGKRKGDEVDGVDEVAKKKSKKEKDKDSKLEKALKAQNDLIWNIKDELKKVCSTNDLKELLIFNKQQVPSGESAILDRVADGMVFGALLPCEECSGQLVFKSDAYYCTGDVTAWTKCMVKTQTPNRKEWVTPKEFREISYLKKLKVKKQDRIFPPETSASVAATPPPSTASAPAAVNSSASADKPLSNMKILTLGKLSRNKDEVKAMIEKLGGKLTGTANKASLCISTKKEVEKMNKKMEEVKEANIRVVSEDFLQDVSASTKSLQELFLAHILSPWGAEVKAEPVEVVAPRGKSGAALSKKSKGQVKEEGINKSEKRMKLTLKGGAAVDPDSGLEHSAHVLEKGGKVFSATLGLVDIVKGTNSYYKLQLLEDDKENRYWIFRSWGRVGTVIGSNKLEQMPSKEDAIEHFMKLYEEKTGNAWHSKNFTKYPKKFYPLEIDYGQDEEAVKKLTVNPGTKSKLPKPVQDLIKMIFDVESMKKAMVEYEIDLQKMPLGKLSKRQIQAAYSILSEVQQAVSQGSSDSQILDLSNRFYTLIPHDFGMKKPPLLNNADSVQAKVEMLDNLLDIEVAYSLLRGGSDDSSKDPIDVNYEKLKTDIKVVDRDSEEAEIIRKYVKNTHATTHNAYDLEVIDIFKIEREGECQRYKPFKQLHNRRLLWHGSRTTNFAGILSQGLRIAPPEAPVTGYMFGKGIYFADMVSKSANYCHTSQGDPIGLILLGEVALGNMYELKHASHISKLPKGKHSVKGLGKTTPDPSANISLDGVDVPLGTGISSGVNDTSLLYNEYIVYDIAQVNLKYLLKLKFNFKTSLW

For `CCNC(=O)c1ccc(N2CCN(Cc3cc(Cl)c4c(=O)n(CC)c(=O)[nH]c4c3)CC2)c(C)n1` [Compound I-48, 5-(4-((5-chloro-3-ethyl-2,4-dioxo-1,2,3,4-tetrahydroquinazolin-7-yl)methyl)piperazin-1-yl)-N-ethyl-6-methylpicolinamide], the IC50 was at most 0.01 µM. As to `CNC(=O)c1ccc(N2CCN(Cc3cc(C(F)F)c4c(=O)n(C)c(=O)[nH]c4c3)CC2)c(C)n1` [Compound I-47, 5-(4-((5-(Difluoromethyl)-3-methyl-2,4-dioxo-1,2,3,4-tetrahydroquinazolin-7-yl)methyl)piperazin-1-yl)-N,6-dimethylpicolinamide], the IC50 is at most 0.01 µM.

Turning to `CCN1C(=O)Nc2cc(CN3CCN(c4ccc(C(=O)NC)nc4C(F)(F)F)CC3)cc3ncnc1c23` [Compound I-18, 5-(4-((3-Ethyl-2-oxo-2,3-dihydro-1H-pyrimido[4,5,6-de]quinazolin-8-yl)methyl)piperazin-1-yl)-N-methyl-6-(trifluoromethyl)picolinamide], the IC50 is at most 0.01 µM. For `CCN1C(=O)Nc2c(F)c(CN3CCN(c4ccc(C(=O)NC5CC5)cc4C)CC3)cc3ncnc1c23` [Compound I-82, N-cyclopropyl-4-(4-((3-ethyl-9-fluoro-2-oxo-2,3-dihydro-1H-pyrimido[4,5,6-de]quinazolin-8-yl)methyl)piperazin-1-yl)-3-methylbenzamide], the IC50 was at most 0.01 µM. The figure for `CCN1C(=O)Nc2c(F)c(CN3CCN(c4ccc(C(=O)N[C@H]5CCCOC5)nc4C)CC3)cc3ncnc1c23` [Compound I-63, (S)-5-(4-((3-ethyl-9-fluoro-2-oxo-2,3-dihydro-1H-pyrimido[4,5,6-de]quinazolin-8-yl)methyl)piperazin-1-yl)-6-methyl-N-(tetrahydro-2H-pyran-3-yl)picolinamide] is at most 0.01 µM; for `CCn1c(=O)[nH]c2cc(CN3CCN(c4ccc(C(=O)NC)nc4C)CC3)cc(F)c2c1=O` [Compound I-22, 5-(4-((3-ethyl-5-fluoro-2,4-dioxo-1,2,3,4-tetrahydroquinazolin-7-yl)methyl)piperazin-1-yl)-N,6-dimethylpicolinamide] it is at most 0.01 µM; for `CCN1C(=O)Nc2c(F)c(CN3CCN(c4ccc(C(=O)NC5(CO)CC5)nc4C)CC3)cc3ncnc1c23` [Compound I-59, 5-(4-((3-ethyl-9-fluoro-2-oxo-2,3-dihydro-1H-pyrimido[4,5,6-de]quinazolin-8-yl)methyl)piperazin-1-yl)-N-(1-(hydroxymethyl)cyclopropyl)-6-methylpicolinamide] it is at most 0.01 µM. The figure for `CCn1c(=O)[nH]c2cc(CN3CCN(c4ccc(C(=O)NC)nc4F)CC3)cc(F)c2c1=O` [Compound I-33, 5-(4-((3-Ethyl-5-fluoro-2,4-dioxo-1,2,3,4-tetrahydroquinazolin-7-yl)methyl)piperazin-1-yl)-6-fluoro-N-methylpicolinamide] is at most 0.01 µM.

Consider `CNC(=O)c1ccc(N2CCN(Cc3cnc4c5c(c(=O)[nH]c4c3)CCC5)CC2)cn1` [Compound I-6, N-methyl-5-(4-((6-oxo-6,7,8,9-tetrahydro-5H-cyclopenta[c][1,5]naphthyridin-3-yl)methyl)piperazin-1-yl)picolinamide], for which the IC50 is at most 0.01 µM. Next, `CNC(=O)c1ccc(N2CCN(Cc3ccc4c(c3)NC(=O)C3(CC3)C4)CC2)cn1` [Compound I-5, N-methyl-5-(4-((2′-oxo-1′,4′-dihydro-2′H-spiro[cyclopropane-1,3′-quinolin]-7′-yl)methyl)piperazin-1-yl)picolinamide]: 0.01 to 0.1 µM; `CCN1C(=O)Nc2c(F)c(CN3CCN(c4ccc(C(=O)NC5CC5)nc4C)CC3)cc3c(C)nnc1c23` [Compound I-56, N-cyclopropyl-5-(4-((9-ethyl-6-fluoro-3-methyl-8-oxo-8,9-dihydro-7H-pyridazino[3,4,5-de]quinazolin-5-yl)methyl)piperazin-1-yl)-6-methylpicolinamide]: at most 0.01 µM.

The record behind these values is patent US20250163022A1, “PARP1 INHIBITORS” (Synnovation Therapeutics, Inc., priority 2021, published 2025).
